Measurements from US7270977B2, “Polypeptides for identifying fungicidally active compounds” (priority 2001, dated 2007).

The compounds below were run against U. maydis IMPDH (Imp1) (Ustilago maydis, UniProt A0A0D1CRJ0, T408N) (assay: Inhibition of U. maydis IMPDH (NADH fluorescence assay)). Settings: negative decimal logarithm of the molar IC50 for 50% inhibition of the enzyme; read-out: pI50 (converted).
Format: biochemical
Procedure: The activity, or the decrease or increase in activity, can also preferably be determined by means of the conversion of the substrate NAD^+ into NADH, where the lower, or inhibited, activity of the polypeptide according to the invention is determined with reference to a less sharp increase in fluorescence emitted by the smaller amounts of NADH formed (see also FIG. 1). NADH fluoresces more than NAD^+.
To this end, the polypeptide according to the invention is incubated at a suitable concentration, which is preferably between 0.1 and 20 ng/μl, preferably between 0.13 and 10 ng/μl, of the enzyme, with NAD^+ at a concentration of from 5 to 400 μM, preferably 10 to 100 μM, and IMP at a concentration of from 5 to 400 μM, preferably from 50 to 300 μM, at a suitable temperature. The IMP concentration is preferably in each case twice as high as the concentration of the substrate NAD^+. It must be borne in mind that substrate inhibition can be observed for both substrates, viz. NAD^+ and IMP, and the used concentrations of the two substrates should therefore be checked in this respect. The temperature may be in a range of from 8 to 37° C. The measurement is preferably carried out at from 10 to 30° C., room temperature is also suitable in particular. The reaction is carried out in a usual buffer (“assay buffer”) which can contain preferably for example 20 to 200 mM KCl, 1 to 5 mM DTE or DTT, 0.01 to 1% BSA, 0.01 to 0.1% Tween 20 and 2 to 10% glycerol and brought to a pH of 8, for example using 25 to 100 mM Tris buffer (see Example 2). […]
The formation of NADH in the course of the reaction is then monitored with reference to the fluorescence at an excitation wavelength of 360 nm and an emission wavelength of 465 nm. The increase in fluorescence in the presence of a chemical compound can then be compared with the increase in fluorescence in the absence of a chemical compound. […] The period within which the increase in fluorescence is measured can be varied. A slow increase in fluorescence can be observed over the course of several hours, until, after 5 to 10 hours, a plateau is reached (see also FIG. 3). As a rule, the fluorescence decreases thereafter. […]
The measurement can also be carried out in formats conventionally used for HTS or UHTS assays, for example in microtitre plates, into which for example a total volume of 5 to 50 μl is introduced per reaction or per well and the individual components are present in one of the above-stated final concentrations. […] The mixture is then incubated for example for up to 2 or 3 hours at a suitable temperature, and the increase in fluorescence is measured at an excitation wavelength of 360 nm and an emission wavelength of 460 nm. […]
With `CCCCCCCCCCCCCCCCOc1ccc(CCCC(=O)O)cc1` [Example 1] the IC50 was 25.1 µM. Work on `COC1=Cc2ccccc2C(=O)C1=O` [Example 2] yielded an IC50 of 12.6 µM. Work on `CN1CCN(C)c2cc3nc4ccccc4nc3cc21` [Example 3] yielded an IC50 of 10 µM. `c1coc(-c2oc3nc4c(-c5ccco5)c(-c5ccco5)oc4nc3c2-c2ccco2)c1` [Example 4] gave an IC50 of 0.2 µM.
